Assays:
8226 cells [1] = assay: Alkaline comet assay, ICL formation and removal; assay type: cell-based, human; conditions: within 17 hours after maximum ICL formation; 2 h exposure to 25 μM melphalan
Experimental: (§1) The alkaline comet assay was used to detect melphalan induced DNA crosslinks in 8226 and 8226/LR5 myeloma cells (Hazlehurst et al., 2003). To examine the dose response, 2×10^5 cells were treated with 25 μM. 50 μM and 100 μM melphalan or vehicle control for two hours, washed in PBS and cultured in drug-free medium for another three hours culture. After drug treatment, samples were irradiated at 900 rads (MARK I model 68A irradiator). The alkaline comet assay was performed according to the manufacturer's instructions (Travegene). Fifty images per slide were randomly captured by fluorescence microscopy and images were quantified using LAI comet analysis software (Loats Associates, Inc. Westminster, Md.). The percent crosslinking was calculated as follows: Relative crosslinking=(1-(Comet moment drug treated-comet moment control/comet moment 900 rads-comet moment control))×100. To examine the ICL formation and removal, 8226 and LR5 were incubated in 25 μM or 50 μM melphalan and vehicle control, respectively for 2 hours after which they were cultured in drug free medium for various times. Cells were collected at 0 h, 3 h, 8 h and 23 h after 2 h drug treatment to perform the comet assay. […] An analysis of variance (ANOVA) model was used to quantify the relationship between the response variable and the two independent variables.

8226/LR5 cells = assay: Alkaline comet assay, ICL formation and removal; assay type: cell-based, human; conditions: within 17 hours after maximum ICL formation; 2 h exposure to 50 μM melphalan
Experimental: as §1

[2] = test system: 8226 cells in suspension (8226/SUS); assay: Alkaline comet assay of melphalan induced DNA crosslinks; assay type: cell-based, human; conditions: 2 h
Experimental: (§2) The alkaline comet assay was used to detect melphalan induced DNA crosslinks in 8226 myeloma cells. Cells cultured in suspension or adhered to FN were treated with varying doses of melphalan or vehicle control for two hours. Following drug treatment, single strand breaks were induced, by irradiating appropriate samples at 900 rads (MARK I model 68A irradiator). After drug treatment and irradiation, 5,000 cells were placed in a microcentrifuge tube containing 1 ml cold PBS, and the alkaline comet assay was performed as described by Kent et al. (1995). Fifty images were randomly captured per slide, and images by fluorescence microscopy were quantified using Optimus^R software as previously described (Hazlehurst et al., 2001; Kent et al., 1995).
(§3) The percent crosslinking was calculated as follows:
(§4) The data shown are the means of three independent experiments (n=50 images for each dose of each independent experiment). An analysis of variance (ANOVA) model was used to quantify the relationship between the response variable and the two independent variables.

8226/LR5 cell line = assay: as above; assay type: cell-based, human; conditions: 2 h, FIG. 3A
Experimental: as §2, §3, §4

[3] = test system: 8226 cells adhered to FN (8226/FN); assay: as above; assay type: cell-based, human; conditions: 2 h, FIG. 3B
Experimental: as §2, §3, §4

8226 cells [4] = assay: Cell-cycle analysis (BrDU/PI flow cytometry); assay type: cell-based, human; conditions: 48 h post 10 μM melphalan, 2 hour treatment
Experimental: (§5) To check the melphalan effect on cell cycle progressing, 8226 and LR5 were treated with 10 μM, 25 μM and 50 μM of melphalan and collected at 24 h and 48 h. Cells were then fixed with 70% EtOH at 4° C. overnight; and resuspended with 500 μl of PBS containing 25 μg/ml propidium Iodide (PI) (Sigma, St. Louis, Mo.) and 1.25 mg/ml Rnase A (Invetrogen) and incubated at 37° C. for 30 minutes in the dark. BrDU/PI staining was done as described (Hazlehurst et al., 2000). Briefly, within various of time post-drug treatment, cells were treated with 10 μM Bromodeoxyuridine (BrDU) at 37° C. for 30 mins, fixed in 70% ethanol., denatured (2MHCl) and neutralized (0.1M sodium borate). Cell were stained with anti-BrDU FITC antibody (BD, Phamingen), then resuspended with 500 μl of PBS containing 25 μg/ml propidium Iodide (PI) (Sigma, St. Louis, Mo.) and 1.25 mg/ml Rnase A (Invetrogen) and incubated at 37° C. for 30 mins in the dark. Nuclear staining was analyzed on a FACScan flow cytometer (Becton Dickinson, San Jose, Calif.). Watson (Pragmatic) from FlowJo 4.4.4 was used for DNA content analysis.

LR5 cells = assay: Cell-cycle analysis (BrDU/PI flow cytometry); assay type: cell-based, human; conditions: 48 h post 10 μM melphalan, 2 hour treatment
Experimental: as §5

[5] = test system: plasma cells from bone marrow aspirates of myeloma patients; assay: Melphalan-induced apoptosis of patient specimens (TUNEL, kappa/lambda staining); assay type: cell-based, human; conditions: 10 patient specimens
Description: To determine if CAM-DR occurred in patient specimens as well as myeloma cell lines, a double immunofluorescent assay was developed to simultaneously detect apoptotic plasma cells. After obtaining IRB approved consent, mononuclear cells from bone marrow aspirates obtained from patients with stage II and III myeloma were isolated by ficol-hypaque centrifugation and placed in αMEM media. One million cells/ml were adhered to FN or placed in suspension (0.1% poly-hema coated wells) for 2 hrs in serum free αMEM media. Following two hours of adhesion, fresh media with 15% FBS was added and cells were incubated for an additional 12-16 hrs. Following adhesion overnight, cells were treated with 200 uM melphalan for two hours and extracellular drug was removed and maintained in drug free media for an additional 24 hrs prior to fixation. Plasma cells were identified by either positive kappa or lambda staining (Vector laboratories, Burlingame, Calif.) and apoptotic plasma cells were identified by TUNEL analysis labeling using a commercially available kit (Intergen company, Purchase, N.Y., Cat. S7110). Fluorescence microscopy (Vysis, Downers Grove, Ill.) was used to count 500 total plasma cells per slide. Results following cell adhesion were compared to mononuclear cells exposed to melphalan in suspension culture.

LR5 cell line = LR5 cell line (Bellamy et al., 1991); cited from earlier work

SMILES | removal of ICL (8226 cells [1]) | ICL removed (8226/LR5 cells) [%] | percent crosslinking, 8226/SUS Mean (SE) ([2]; 25 uM melphalan, FIG. 3A) | percent crosslinking, 8226/SUS Mean (SE) ([2]; 25 uM melphalan, FIG. 3B) | percent crosslinking, 8226/SUS Mean (SE) ([2]; 50 uM melphalan, FIG. 3B) | percent crosslinking, 8226/SUS Mean (SE) ([2]; 100 uM melphalan, FIG. 3A) | percent crosslinking, 8226/SUS Mean (SE) ([2]; 100 uM melphalan, FIG. 3B) | percent crosslinking, 8226/LR5 Mean (SE) (8226/LR5 cell line; 25 uM melphalan) | percent crosslinking, 8226/LR5 Mean (SE) (8226/LR5 cell line; 50 uM melphalan) | percent crosslinking, 8226/LR5 Mean (SE) (8226/LR5 cell line; 100 uM melphalan) | percent crosslinking, 8226/FN Mean (SE) ([3]; 25 uM melphalan) | percent crosslinking, 8226/FN Mean (SE) ([3]; 50 uM melphalan) | percent crosslinking, 8226/FN Mean (SE) ([3]; 100 uM melphalan) | cell cycle effect (8226 cells [4]) | cell cycle effect (LR5 cells) | mean percent apoptosis of plasma cells ([5]; adhered to FN prior to treatment with 200 uM melphalan) [%] | mean percent apoptosis of plasma cells ([5]; maintained in cell suspension, 200 uM melphalan) [%] | effect on resistance to melphalan (LR5 cell line)
N[C@@H](Cc1ccc(N(CCCl)CCCl)cc1)C(=O)O [melphalan, Melphalan] | no significant removal of ICL | 40 | 20.31 (9.579) % | 22.40 (9.458) % | 46.27 (5.850) % | 67.31 (4.110) % | 70.67 (6.175) % | −4.49 (16.687) % | 14.02 (8.648) % | 47.32 (9.121) % | 29.11 (0.888) % | 47.73 (2.141) % | 72.03 (2.09) % | arrested in G2/M phase | continue cell cycle progression | 27.7 | 55.6 | –
CCCCS(=N)(=O)CCC(N)C(=O)O (stereo not drawn) [buthionine sulfoximine] | – | – | – | – | – | – | – | – | – | – | – | – | – | – | – | – | – | partially reversed resistance to melphalan

From US8227434B1, “Materials and methods for treating oncological disorders” (H. Lee Moffitt Cancer Center & Research Institute, Inc., priority 2003, dated 2012)
